Measurements taken from ChEMBL document CHEMBL1129928, “Selectin-ligand interactions revealed by molecular dynamics simulation in solution” (J Med Chem, 1997).
pIC50: −log10 of the molar value.

Legend:
Format in all cases: cell-based, Endothelial cell
[1] = target: T1, E-selectin (Homo sapiens, UniProt P16581); test: Inhibitory activity against E-selectin expressed in endothelial cells
T1 sequence (P16581 whole entry): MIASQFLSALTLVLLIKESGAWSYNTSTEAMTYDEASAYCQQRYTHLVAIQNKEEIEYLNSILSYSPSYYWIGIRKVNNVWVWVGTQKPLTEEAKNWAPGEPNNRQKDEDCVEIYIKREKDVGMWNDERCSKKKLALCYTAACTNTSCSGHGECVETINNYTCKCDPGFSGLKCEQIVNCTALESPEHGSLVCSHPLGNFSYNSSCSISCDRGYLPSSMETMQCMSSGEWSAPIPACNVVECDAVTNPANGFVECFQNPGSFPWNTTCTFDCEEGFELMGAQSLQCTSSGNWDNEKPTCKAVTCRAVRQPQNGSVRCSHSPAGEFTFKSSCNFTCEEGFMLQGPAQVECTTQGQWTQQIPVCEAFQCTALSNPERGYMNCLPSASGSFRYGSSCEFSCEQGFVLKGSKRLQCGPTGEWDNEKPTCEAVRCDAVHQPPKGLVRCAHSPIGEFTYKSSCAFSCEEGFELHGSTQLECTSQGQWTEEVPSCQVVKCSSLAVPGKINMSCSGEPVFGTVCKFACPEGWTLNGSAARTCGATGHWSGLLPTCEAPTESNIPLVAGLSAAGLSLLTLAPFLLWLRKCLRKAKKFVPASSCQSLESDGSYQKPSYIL

[2] = target: T2, P-selectin (Homo sapiens, UniProt P16109); test: Inhibitory activity against Selectin P expressed in endothelial cells
T2 sequence (P16109 whole entry): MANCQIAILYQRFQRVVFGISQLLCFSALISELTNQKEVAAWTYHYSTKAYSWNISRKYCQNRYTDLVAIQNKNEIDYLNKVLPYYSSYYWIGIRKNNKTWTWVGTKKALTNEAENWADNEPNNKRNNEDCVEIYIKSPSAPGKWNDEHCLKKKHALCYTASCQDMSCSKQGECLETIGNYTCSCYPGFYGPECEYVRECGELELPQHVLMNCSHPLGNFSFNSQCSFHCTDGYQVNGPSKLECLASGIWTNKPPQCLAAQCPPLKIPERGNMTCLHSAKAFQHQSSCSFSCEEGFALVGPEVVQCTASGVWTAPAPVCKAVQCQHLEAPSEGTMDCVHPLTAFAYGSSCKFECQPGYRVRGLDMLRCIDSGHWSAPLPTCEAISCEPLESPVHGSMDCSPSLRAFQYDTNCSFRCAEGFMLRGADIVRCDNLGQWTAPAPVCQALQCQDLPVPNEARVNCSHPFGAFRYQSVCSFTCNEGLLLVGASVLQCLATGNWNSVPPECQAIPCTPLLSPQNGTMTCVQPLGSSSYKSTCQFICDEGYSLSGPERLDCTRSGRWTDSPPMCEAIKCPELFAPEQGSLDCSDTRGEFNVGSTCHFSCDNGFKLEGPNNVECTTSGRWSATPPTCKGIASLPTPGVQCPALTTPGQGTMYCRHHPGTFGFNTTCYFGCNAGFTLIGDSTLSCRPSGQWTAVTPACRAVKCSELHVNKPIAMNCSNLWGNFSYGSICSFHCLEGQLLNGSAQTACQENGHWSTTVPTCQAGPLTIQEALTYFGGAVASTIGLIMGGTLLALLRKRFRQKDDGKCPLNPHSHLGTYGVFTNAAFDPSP

[3] = target: T3, L-selectin (Homo sapiens, UniProt P14151); test: Inhibitory activity against Selectin L expressed in endothelial cells
T3 sequence (P14151 whole entry): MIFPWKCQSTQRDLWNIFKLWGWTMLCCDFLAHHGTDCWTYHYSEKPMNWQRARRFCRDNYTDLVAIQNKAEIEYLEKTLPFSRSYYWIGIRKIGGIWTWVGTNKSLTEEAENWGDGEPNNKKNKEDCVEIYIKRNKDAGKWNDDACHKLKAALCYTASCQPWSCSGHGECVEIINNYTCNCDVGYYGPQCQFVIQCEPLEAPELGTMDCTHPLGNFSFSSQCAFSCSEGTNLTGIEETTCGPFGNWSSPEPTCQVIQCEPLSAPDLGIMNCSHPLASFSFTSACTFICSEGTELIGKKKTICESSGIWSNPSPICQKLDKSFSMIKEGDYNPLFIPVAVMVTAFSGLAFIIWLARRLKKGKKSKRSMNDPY

pIC50 [1] | pIC50 [2] | pIC50 [3] | Compound
< 3.00 | 3.52 | < 3.00 | C[C@@H]1O[C@@H](O[C@@H]2[C@H](O)[C@H](O)O[C@@H](CO)[C@H]2O[C@@H]2O[C@@H](CO)[C@H](O)[C@H](OS(=O)(=O)O)[C@@H]2O)[C@@H](O)[C@@H](O)[C@@H]1O
3.55 | 4.00 | 4.52 | CCCCCCCCCCCCCCC(CCCCCCCCCCCCCC)CO[C@@H]1O[C@H](CO)[C@@H](O[C@@H]2O[C@H](CO)[C@H](O)[C@H](OS(=O)(=O)O)[C@H]2O)[C@H](O[C@@H]2O[C@@H](C)[C@@H](O)[C@@H](O)[C@@H]2O)[C@H]1O
3.22 | < 3.00 | < 3.00 | CC(=O)N[C@H]1[C@H]([C@H](O)[C@H](O)CO)O[C@@](O[C@@H]2[C@H](O)[C@H](O[C@H]3[C@H](O[C@@H]4O[C@@H](C)[C@@H](O)[C@H](O)[C@@H]4O)[C@H](NC(C)=O)C(O)O[C@H]3CO)O[C@@H](CO)[C@@H]2O)(C(=O)O)C[C@H]1O (some centres undefined)
